The values that follow come from patent EP3643310B1, “COMPOSITION FOR REVERSE CONTROL OF CELLULAR SENESCENCE COMPRISING PDK1 INHIBITOR” (Korea Advanced Institute Of Science And Technology, priority 2018, dated 2020).

Assay type in all cases: cell-based, human
Experiment [1] concerns senescent fibroblasts. The experiment in a line: wound healing assay. To be noted: same senescence/inhibitor conditions; growth-condition medium for 7 days; FIG. 4B. As for the experimental part:
To determine whether the senescent cells subjected to the PDK1 inhibition are reverted to normal young cells, the PDX1 inhibitor BX-795 (Selleckchem) was applied to the senescent fibroblasts. Then, SA β-gal activity assay (senescence-associated β-galactosidase kit), wound healing assay, and fluorescence staining experiments were performed. Thus, the cell cycle change in the senescent cells based on PDK1 Inhibition was checked. Specifically, cellular senescence was caused by exposing the cells for 7 days to culture conditions causing senescence, containing 100 ng/ml of IGF1, 100 ng/ml of doxorubicin, 10 % FBS, and 4.5 g/L of glucose. At this time, most of the cells turned senescent. Then, the PDK1 inhibitor was applied to the same culture condition for 7 days. Total 14 days of the application lapsed. Then, the cells were treated with growth media free of IGF1, doxorubicin, or PDK1 inhibitor. The wound healing assay was performed under the same conditions. Ki-67 expression was analyzed to evaluate the division activity of the cells and the results are shown in 4C.

The subject of experiment [2] is senescent fibroblasts. The experiment can be described thus: SA β-gal activity assay (senescence-associated β-galactosidase kit). The procedure: (§1) To determine whether the senescent cells subjected to the PDK1 inhibition are reverted to normal young cells, the PDX1 inhibitor BX-795 (Selleckchem) was applied to the senescent fibroblasts. Then, SA β-gal activity assay (senescence-associated β-galactosidase kit), wound healing assay, and fluorescence staining experiments were performed. Thus, the cell cycle change in the senescent cells based on PDK1 Inhibition was checked.
(§2) Specifically, cellular senescence was caused by exposing the cells for 7 days to culture conditions causing senescence, containing 100 ng/ml of IGF1, 100 ng/ml of doxorubicin, 10 % FBS, and 4.5 g/L of glucose. At this time, most of the cells turned senescent. Then, the PDK1 inhibitor was applied to the same culture condition for 7 days. Total 14 days of the application lapsed. […] Ki-67 expression was analyzed to evaluate the division activity of the cells and the results are shown in 4C.
(§3) In order to check whether the same result occurs when other PDK1 inhibitors are used, SA β-gal activity assay was performed in the same manner using PDK1 inhibitor 7. […] Therefore, the number of bluestained senescent cells as SA β-gal activity assay-positive and the total number of cells were counted using an optical microscope. […] In addition, fluorescence staining experiments were performed to check the expression of the cell proliferation marker ki-67.

The subject of experiment [3] is senescent fibroblasts. The experiment can be described thus: ki-67 fluorescence staining (cell division/proliferation marker). As for the experimental part: as §1, §2, §3

Turning to `O=C(NCCCNc1nc(Nc2cccc(NC(=O)N3CCCC3)c2)ncc1I)c1cccs1` [BX-795], in the experiment on senescent fibroblasts [1], the “cell rejuvenation ability of the senescent cells (wound healing)” value was “normalized”. Besides, the “SA β-gal as an indicator of senescent cells” value with senescent fibroblasts [2] (senescence induced 7 days with IGF1 100 ng/ml + doxorubicin 100 ng/ml, PDK1 inhibitor applied 7 days, assay one day after change to growth media, FIG. 4A) is reported as “significantly reduced”. In the experiment on senescent fibroblasts [3] (cells treated with growth medium at 7 days after the drug application, FIG. 4C), the “ki-67 staining, cell division” value is on record as “cell division occurred in some of the cells”.

Take `O=C(N[C@@H](COc1ccc2[nH]c(=O)[nH]c2c1)c1ccccc1)c1cccn(Cc2ccc(F)c(F)c2)c1=O` [PDK1 inhibitor 7]: in the experiment with senescent fibroblasts [2] (percentage of blue-stained senescent cells counted by optical microscope, statistically significant, FIG. 5A, 5B), the “reduction of SA β-gal stained cells compared with the PDK1 inhibitor non-treated group” value is no less than 40%. Moreover, the “increase of the number of ki-67 positive cells” value in the experiment on senescent fibroblasts [3] (PDK1 inhibitor applied to senescent cells, FIG. 5C, 5D) is given as no less than 20%.
